Measurements published in EP3807270B1, “NOVEL HETEROARYL HETEROCYCLYL COMPOUNDS FOR THE TREATMENT OF AUTOIMMUNE DISEASE” (F. Hoffmann-La Roche AG, priority 2018, dated 2019).

Legend:
[1] = Human microsome stability assay; format: in vitro ADME; settings: 1 µM test compound, 0.5 mg/mL liver microsomal protein, 37 °C
Protocol: The human microsomal stability assay is used for early assessment of metabolic stability of a test compound in human liver microsomes.
Human liver microsomes (Cat.NO.: 452117, Corning, USA;Cat.NO.:H2610, Xenotech, USA) were preincubated with test compound for 10 minutes at 37 °C in 100 mM potassium phosphate buffer, pH 7.4. The reactions were initiated by adding NADPH regenerating system. The final incubation mixtures contained 1 µM test compound, 0.5 mg/mL liver microsomal protein, 1 mM MgClz, 1 mM NADP, 1 unit/mL isocitric dehydrogenase and 6 mM isocitric acid in 100 mM potassium phosphate buffer, pH 7.4. After incubation times of 0, 3, 6, 9, 15 and 30 minutes at 37 °C, 300 µL of cold acetonitrile (including internal standard) was added to 100 µL incubation mixture to terminate the reaction. Following precipitation and centrifugation, the amount of compound remaining in the samples were determined by LC-MS/MS. Controls of no NADPH regenerating system at zero and 30 minutes were also prepared and analyzed. […] Table 6. Human liver microsome stability of the compounds of present invention

hERG channel = target: T1, hERG channel (Homo sapiens, UniProt Q12809); assay: hERG channel inhibition assay (patch-clamp, CHO hERG cells); format: cell-based; settings: for IC50 / IC20: CHO hERG cells, whole-cell patch-clamp; for IC20: human, CHO cells stably expressing hERG; for hERG IC20 / TLR8 IC50 / hERG IC20 / TLR7 IC50 / hERG IC20 / TLR9 IC50: safety ratio; for hERG IC20 / TLR7 IC50: TLR7 IC50 of ER compounds from Table 1; for hERG IC20 / TLR9 IC50: TLR9 IC50 of ER compounds from Table 1
T1 construct: expressed in transfected cells; host or cells: CHO (Chinese hamster ovary)
Protocol: The hERG K^+ channels were cloned in humans and stably expressed in a CHO (Chinese hamster ovary) cell line. CHOhERG cells were used for patch-clamp (voltage-clamp, whole-cell) experiments. Cells were stimulated by a voltage pattern to activate hERG channels and conduct IKhERG currents (rapid delayed outward rectifier potassium current of the hERG channel). After the cells were stabilized for a few minutes, the amplitude and kinetics of IKhERG were recorded at a stimulation frequency of 0.1 Hz (6 bpm). Thereafter, the test compound was added to the preparation at increasing concentrations. For each concentration, an attempt was made to reach a steady-state effect, usually, this was achieved within 3-10 min at which time the next highest concentration was applied. The amplitude and kinetics of IKhERG are recorded in each concentration of the drug which were compared to the control values (taken as 100%). (references: Redfern WS, Carlsson L, Davis AS, Lynch WG, MacKenzie I, Palethorpe S, Siegl PK, Strang I, Sullivan AT, Wallis R, Camm AJ, Hammond TG. 2003; Relationships between preclinical cardiac electrophysiology, clinical QT interval prolongation and torsade de pointes for a broad range of drugs: evidence for a provisional safety margin in drug development. Cardiovasc. Res. 58:32-45, Sanguinetti MC, Tristani-Firouzi M. 2006; hERG potassium channels and cardiac arrhythmia. Nature 440:463-469, Webster R, Leishman D, Walker D. 2002; Towards a drug concentration effect relationship for QT prolongation and torsades de pointes. Curr. Opin. Drug Discov. Devel. 5:116-26).
Table 3. hERG and safety ratio results

T1 sequence (Q12809 whole entry): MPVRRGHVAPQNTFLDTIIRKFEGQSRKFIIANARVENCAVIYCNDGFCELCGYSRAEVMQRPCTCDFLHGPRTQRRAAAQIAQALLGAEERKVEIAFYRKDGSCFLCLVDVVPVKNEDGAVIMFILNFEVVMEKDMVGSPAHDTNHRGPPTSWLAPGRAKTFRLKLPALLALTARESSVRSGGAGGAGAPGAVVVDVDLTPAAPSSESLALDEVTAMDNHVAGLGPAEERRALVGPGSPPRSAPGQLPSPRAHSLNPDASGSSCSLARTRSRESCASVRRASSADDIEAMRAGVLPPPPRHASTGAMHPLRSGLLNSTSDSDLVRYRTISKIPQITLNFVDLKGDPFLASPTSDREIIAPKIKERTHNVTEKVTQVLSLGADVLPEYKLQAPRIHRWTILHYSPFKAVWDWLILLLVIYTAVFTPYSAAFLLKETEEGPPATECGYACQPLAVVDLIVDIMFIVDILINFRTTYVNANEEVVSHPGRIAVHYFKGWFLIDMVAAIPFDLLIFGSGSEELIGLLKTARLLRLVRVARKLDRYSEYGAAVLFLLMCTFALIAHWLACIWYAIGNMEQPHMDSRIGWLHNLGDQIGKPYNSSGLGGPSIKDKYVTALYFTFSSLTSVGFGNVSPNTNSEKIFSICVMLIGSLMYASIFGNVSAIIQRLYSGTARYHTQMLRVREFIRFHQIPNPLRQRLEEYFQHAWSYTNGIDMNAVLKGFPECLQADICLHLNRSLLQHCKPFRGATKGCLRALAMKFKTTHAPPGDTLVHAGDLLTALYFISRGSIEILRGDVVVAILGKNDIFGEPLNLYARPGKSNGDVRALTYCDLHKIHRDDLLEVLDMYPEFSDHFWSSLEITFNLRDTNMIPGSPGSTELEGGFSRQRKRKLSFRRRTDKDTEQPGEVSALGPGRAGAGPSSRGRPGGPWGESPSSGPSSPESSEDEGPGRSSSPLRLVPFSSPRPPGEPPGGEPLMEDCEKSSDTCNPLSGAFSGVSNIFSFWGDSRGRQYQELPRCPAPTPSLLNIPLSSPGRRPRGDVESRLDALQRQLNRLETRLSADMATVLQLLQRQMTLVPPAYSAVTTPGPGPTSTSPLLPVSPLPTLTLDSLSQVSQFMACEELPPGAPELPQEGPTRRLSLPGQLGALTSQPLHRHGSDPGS

SMILES | Clearance of Human microsome [1] [mL/min/kg] | IC50 (hERG channel) [µM] | IC20 (hERG channel) [µM] | hERG IC20 / TLR8 IC50 (hERG channel) | hERG IC20 / TLR7 IC50 (hERG channel) | hERG IC20 / TLR9 IC50 (hERG channel)
C[C@@H]1CN(c2ccc(C#N)c3ncccc23)C[C@H](CN2CCN(c3ccc4c(n3)CN[C@H]4C)CC2)O1 (single isomer, unassigned) [Example 63] | 6.15 |  |  |  |  | 
C[C@@H]1CN(c2ccc(C#N)c3ncccc23)C[C@H](CN2CCN(c3cnc4c(c3)CN[C@H]4C)CC2)O1 (single isomer, unassigned) [Example 67] | 6.15 |  |  |  |  | 
C[C@@H]1CN(c2ccc(C#N)c3nccnc23)C[C@H](CN2CCN(c3ccc4c(n3)CN[C@H]4C)CC2)O1 (single isomer, unassigned) [Example 78] | 7.50 |  |  |  |  | 
C[C@@H]1CN(c2ccc(C#N)c3nccnc23)C[C@H](CN2CCN(c3cc4c(cn3)C[C@H](C)NC4)CC2)O1 (single isomer, unassigned) [Example 81] | 6.15 |  |  |  |  | 
C[C@@H]1Cc2cnc(N3CCN(C[C@H]4CN(c5ccc(C#N)c6nccnc56)C[C@@H](C)O4)CC3)cc2CN1 (single isomer, unassigned) [Example 82] | 8.84 |  |  |  |  | 
C[C@@H]1Cc2cc(N3CCN(C[C@H]4CN(c5ccc(C#N)c6nccnc56)C[C@@H](C)O4)CC3)ncc2CN1 (single isomer, unassigned) [Example 83] | 8.31 |  |  |  |  | 
C[C@@H]1CN(c2ccc(C#N)c3nccnc23)C[C@H](CN2CCN(c3cc4c(cn3)[C@H](C)NCC4)CC2)O1 (single isomer, unassigned) [Example 85] | 7.83 |  |  |  |  | 
C[C@@H]1CN(c2ccc(C#N)c3ncccc23)C[C@H](CN2CCN(c3ccc4c(c3)CCNC4)CC2)O1 [Example 5, 5-[(2R,6S)-2-methyl-6-[[4-(1,2,3,4-tetrahydroisoquinolin-6-yl)piperazin-1-yl]methyl]morpholin-4-yl]quinoline-8-carbonitrile] |  | > 20 | > 10 | >497.5 | >320.5 | >156.0
C[C@@H]1CN(c2ccc(C#N)c3ncsc23)C[C@H](CN2CCN(c3cnc4c(c3)CNC4)CC2)O1 [Example 8, 7-[(2S,6R)-2-[[4-(6,7-dihydro-5H-pyrrolo[3,4-b]pyridin-3-yl)piperazin-1-yl]methyl]-6-methyl-morpholin-4-yl]-1,3-benzothiazole-4-carbonitrile] |  | > 20 | > 10 | >3333.3 | >1020.4 | >207.5
C[C@@H]1CN(c2ccc(C#N)c3ncccc23)C[C@H](CN2CCN(c3ccc4c(c3)CNC4)C(CO)C2)O1 (stereo partly drawn) [Example 13, 5-[(2S,6R)-2-[[3-(hydroxymethyl)-4-isoindolin-5-yl-piperazin-1-yl]methyl]-6-methyl-morpholin-4-yl]quinoline-8-carbonitrile] | 8.00 |  |  |  |  | 
C[C@@H]1CN(c2ccc(C#N)c3ncccc23)C[C@H](CN2CCN(c3ccc4c(n3)CCNC4)CC2)O1 [Example 14, 5-[(2R,6S)-2-methyl-6-[[4-(5,6,7,8-tetrahydro-1,6-naphthyridin-2-yl)piperazin-1-yl]methyl]morpholin-4-yl]quinoline-8-carbonitrile] |  | > 20 | 7.07 | 1725.4 | 673.7 | 122.8
C[C@@H]1CN(c2ccc(C#N)c3ncccc23)C[C@H](CN2CCN(c3ccc4c(c3)CN(CCO)C4)CC2)O1 [Example 16, 5-[(2S,6R)-2-[[4-[2-(2-hydroxyethyl)isoindolin-5-yl]piperazin-1-yl]methyl]-6-methyl-morpholin-4-yl]quinoline-8-carbonitrile] |  | > 20 | > 10 | >1000.0 | >490.2 | >110.4
C[C@@H]1CN(c2ccc(C#N)c3ncccc23)C[C@H](CN2CCN(c3cc4c(cn3)CNCC4)CC2)O1 [Example 19, 5-[(2R,6S)-2-methyl-6-[[4-(5,6,7,8-tetrahydro-2,7-naphthyridin-3-yl)piperazin-1-yl]methyl]morpholin-4-yl]quinoline-8-carbonitrile] |  | > 20 | > 10 | >2283.1 | >1118.6 | >158.3
C[C@@H]1CN(c2ccc(C#N)c3ncccc23)C[C@H](CN2CCN(c3cnc4c(c3)CNCC4)CC2)O1 [Example 21, 5-[(2R,6S)-2-methyl-6-[[4-(5,6,7,8-tetrahydro-1,6-naphthyridin-3-yl)piperazin-1-yl]methyl]morpholin-4-yl]quinoline-8-carbonitrile] |  | > 20 | > 10 | >1098.9 | >900.9 | >193.8
C[C@@H]1CN(c2ccc(C#N)c3ncccc23)C[C@H](CN2CCN(c3ccc4c(c3)CCNC4CO)CC2)O1 (stereo partly drawn) [Example 24, 5-[(2S,6R)-2-[[4-[1-(hydroxymethyl)-1,2,3,4-tetrahydroisoquinolin-6-yl]piperazin-1-yl]methyl]-6-methyl-morpholin-4-yl]quinoline-8-carbonitrile] | 6.15 |  |  |  |  | 
C[C@@H]1CN(c2ccc(C#N)c3nccnc23)C[C@H](CN2CCN(c3cnc4c(c3)CNC4)CC2)O1 [Example 25, 8-[(2S,6R)-2-[[4-(6,7-dihydro-5H-pyrrolo[3,4-b]pyridin-3-yl)piperazin-1-yl]methyl]-6-methyl-morpholin-4-yl] quinoxaline-5-carbonitrile] |  | > 20 | > 10 | >584.8 | >520.8 | >111.7
CC1NCc2cc(N3CCN(C[C@H]4CN(c5ccc(C#N)c6ncccc56)C[C@@H](C)O4)CC3)ccc21 (stereo partly drawn) [Example 28, 5-[(2R,6S)-2-methyl-6-[[4-(1-methylisoindolin-5-yl)piperazin-1-yl]methyl]morpholin-4-yl]quinoline-8-carbonitrile] | 6.15 |  |  |  |  | 
C[C@@H]1CN(c2ccc(C#N)c3ncccc23)C[C@H](CN2CCN(c3ccc4c(n3)CNC4)CC2)O1 [Example 30, 5-[(2S,6R)-2-[[4-(6,7-dihydro-5H-pyrrolo[3,4-b]pyridin-2-yl)piperazin-1-yl]methyl]-6-methyl-morpholin-4-yl] quinoline-8-carbonitrile] |  | > 20 | > 10 | >1515.2 | >840.3 | >246.3
CC1NCc2ncc(N3CCN(C[C@H]4CN(c5ccc(C#N)c6ncccc56)C[C@@H](C)O4)CC3)cc21 (stereo partly drawn) [Example 41, 5-[(2R,6S)-2-methyl-6-[[4-(5-methyl-6,7-dihydro-5H-pyrrolo[3,4-b]pyridin-3-yl)piperazin-1-yl]methyl]morpholin-4-yl]quinoline-8-carbonitrile] |  | > 20 | > 10 | >574.7 | >354.6 | >166.7
C[C@@H]1CN(c2ccc(C#N)c3ncccc23)C[C@H](CN2CC3(C2)CN(c2cnc4c(n2)CCNC4)CCO3)O1 [Example 50, 5-[(2R,6S)-2-methyl-6-[[8-(5,6,7,8-tetrahydropyrido[3,4-b]pyrazin-2-yl)-5-oxa-2,8-diazaspiro [3.5]nonan-2-yl]methyl]morpholin-4-yl] quinoline-8-carbonitrile] |  | > 20 | > 10 | >3125.0 | >2702.7 | > 144.9
COc1ccc(N2CCN(C[C@H]3CN(c4ccc(C#N)c5ncccc45)C[C@@H](C)O3)CC2)cc1 [Example R1, 5-[(2S,6R)-2-[[4-(4-methoxyphenyl)piperazin-1-yl]methyl]-6-methyl-morpholin-4-yl]quinoline-8-carbonitrile, reference compound] |  | 2.74 | 0.879 | 6.2 | 9.3 | 0.1
